According to US20090181467A1, “Method of assessing and of activating the alternative cellular energy (ACE) pathway in the therapy of diseases” (MI Hope Inc. dba Progressive University, priority 2008, published 2009):

Tests used:
[1] = system: active skin lesions caused by herpes simplex virus (HSV), herpes zoster virus (HZV) and human papillomavirus (HPV) infections; conditions: cited from earlier work
[2] = system: alternative cellular energy (ACE) pathway; test: neutral red dye / UV-A light activation of the ACE pathway in patients; type: in vivo, human
Description: A series of patients have been seen who have a history of recurrent herpes simplex virus (HSV) skin lesions, or a past history of herpes zoster virus (HZV) infections, but with no actual skin lesions present at the time of examination. Another series of patients were recruited from among the patients attending a chiropractic clinic for various pain or impaired mobility related conditions. Under the direction of the inventor, both groups of patients were asked to volunteer for a study on assessing and, if necessary, activating the ACE pathway. Q-tips were used to sample various areas of their skin as well as the mucosal (buccal) surface of their mouths. Urine samples were also collected. The materials were checked for direct fluorescence using a 15W ultraviolet-A light emitting spiral fluorescent light (Halco, ProLume light). The swabs were then touched against other Q-tips that were soaked in an approximately 1 mg/ml solution of neutral red. Several drops of the neutral red solution were added to the urine. The Q-tips and urine were again examined under UV-A light for discernable fluorescence compared to Q-tips exposed only to neutral red. […] Clinic staff similarly tested and gave negative results.
Skin areas of the patients from which fluorescing material were obtained were then wiped with absorbent cloth. These cloth was placed over areas of skin from which the material was collected, stained with neutral red, and exposed to UV-A light from spiral fluorescent bulbs. Under UV illumination, fluorescence developed in areas of skin beneath and adjacent to the stained cloth. The fluorescence lasted for varying periods of time extending in one patient to 3 hours, but generally less than 1 hour. […] Similarly, in most patients there was no discernable fluorescing material when the patients were seen the next day. […] A person commented upon the relief they experienced from a chronically painful shoulder that had resulted from injuries received years earlier in a car accident. Another patient's personality transformed from expressions of anger and hostility to one of laughter and smiles.

For `Cc1cc2nc3ccc(N(C)C)cc3nc2cc1N.Cl` [neutral red], the “healing of active skin lesions” value [1] is given as “successfully used in expediting the healing”, the sense of wellness ([2]; all patients, at the end of period of UV illumination) is given as “much improved sense of wellness” and the “severity of the pain and restricted mobility symptoms” value ([2]; chiropractic patients, following day) is given as “marked reductions”. For the same molecule, the “persistence of benefits after a therapy session” value ([2]; no additional intervention) was 2-3 weeks and the vitality ([2]; patients with prior history of recurrent HSV infections, immediately after therapy session and next day) was “improved vitality”.
